Experimental data as given in US9452177B2, “Vitamin D compounds and methods for reducing ocular hypertension (OHT)” (Wisconsin Alumni Research Foundation, priority 2008, dated 2016).

Assay: Ocular inflammation by slit-lamp biomicroscopy
Assay type: in vivo, cynomolgus monkeys (Macaca fascicularis)
Settings: Example 1; 5 topical treatments, 5 μg (2MD 6 μg)
Protocol: The intraocular pressure (IOP) was determined with a “minified” Goldmann applanation tonometer [Kaufman, 1980] using HALF AND HALF™ creamer solution (Borden) as the tear film indicator [Croft, 1997] with the monkey lying prone in a head holder and the eyes positioned 4 to 8 cm above the heart. All monkeys were examined by slit-lamp before the first IOP measurement in each protocol. For each eye, two or three IOP measurements were averaged as a baseline.
On the 3th day, prior to the 5th treatment, baseline IOP, biomicroscopy and MAP were determined. Preliminary studies indicated an effect was observed after these treatments but not after a single treatment. Following the 5th dose, IOP was measured at 1, 2, 3, 4, 5, 6, 7, 8, 12 (if possible), 24, and sometimes 48 hr. Biomicroscopy was done at 1, 3, 6, 24 and sometimes 48 hr. MAP on day 3 (some protocols) was determined at 1, 2, 3, 4, 5, 6, 7, 8, 24 and sometimes 48 hr if possible. Blood samples after the 5th treatment were collected at 6, 24, and sometimes 48 hr. For some protocols, IOP was also measured prior to each treatment; MAP was measured prior to the morning treatment; blood was collected prior to the afternoon treatment. Subsequent screening protocols will not include the MAP and blood collections and will only measure IOP at baseline and prior to and for 1-6 hr after the 5th treatment.
Baseline pretreatment IOP was determined by Goldmann applanation tonometry [Kaufman, 1980] with […] used as a tear film indicator [Croft, 1997]. Two baseline IOP measurements were taken 5 minutes apart. Monkeys were then treated topically with 5 μl of 1,25-dihydroxyvitamin D3 (1,25-(OH)2D3) (0.1-5 μg) to one eye and vehicle (propylene glycol) to the opposite eye twice a day for 5 treatments total. […] IOP was also measured prior to the afternoon treatment. On the third day, IOP was measured prior to the morning treatment. Following the fifth treatment, IOP was measured hourly for 8 hours and, in some cases, also at 12, 24, and 48 hours. […]

C=C1/C(=C\C=C2/CCC[C@]3(C)[C@@H]([C@H](C)CCCC(C)(C)O)CC[C@@H]23)C[C@@H](O)C[C@@H]1O [1,25-(OH)2D3, 1α,25-dihydroxyvitamin D3]
ocular inflammation: no ocular inflammation at any time-point
